Marks after values point to notes of the source that are not given here.

The data set in a line: LogP by HPLC on reversed phase columns (EEC directive 79/831 Annex V.A8). Format: physicochemical. To be noted: for chromatographic logP: reversed phase HPLC column, method [a]: LC-UV, acidic range, 0.1% formic acid in water and acetonitrile as eluent. The method, then:
[table] If more than one Log P value is available within the same method, all the values are given and separated by “+”. […] Lambda-max-values were determined using UV-spectra from 200 nm to 400 nm and the peak values of the chromatographic signals.

In the case of `ON=C1CCCc2cc(-c3noc(C(F)(F)F)n3)ccc21` [Compound I-001], the LogP was 3.62^[a].

Take `FC(F)(F)c1nc(-c2ccc3nc[nH]c3c2)no1` [Compound I-002]: the LogP is 1.46^[a].

For the molecule `Cn1cnc2cc(-c3noc(C(F)(F)F)n3)ccc21` [Compound I-003], the LogP was 1.70^[a]. Take `Cn1cnc2ccc(-c3noc(C(F)(F)F)n3)cc21` [Compound I-004]: the LogP is 1.67^[a]. Still for that read-out and setting: as for `FC(F)(F)c1nc(-c2ccc3cn[nH]c3c2)no1` [Compound I-006], the figure is 2.70^[a]; as for `FC(F)(F)c1nc(-c2ccc3cnn(Cc4ccccc4)c3c2)no1` [Compound I-007], 4.34^[a]; as for `FC(F)(F)c1nc(-c2ccc3cn(Cc4ccccc4)nc3c2)no1` [Compound I-008], 4.03^[a].

Turning to `FC(F)(F)c1nc(-c2ccc3c(cnn3Cc3ccccc3)c2)no1` [Compound I-009], the LogP was 4.39^[a]. Same read-out and setting: as for `CCn1cc2cc(-c3noc(C(F)(F)F)n3)ccc2n1` [Compound I-010], the figure is 3.15^[a]; as for `CCn1ncc2cc(-c3noc(C(F)(F)F)n3)ccc21` [Compound I-011], 3.67^[a]; as for `FC(F)(F)c1nc(-c2ccc3nn(Cc4ccccc4)cc3c2)no1` [Compound I-012], 4.03^[a].

With `CCn1cc2ccc(-c3noc(C(F)(F)F)n3)cc2n1` [Compound I-015], the LogP is 3.21^[a]. Still for that read-out and setting: as for `COCCn1ncc2ccc(-c3noc(C(F)(F)F)n3)cc21` [Compound I-016], the figure is 3.35^[a]; as for `COCCn1cc2ccc(-c3noc(C(F)(F)F)n3)cc2n1` [Compound I-017], 3.00^[a]. Molecule `CONC1CCCc2cc(-c3noc(C(F)(F)F)n3)ccc21` (centres unmarked) [Compound I-018, O-Methyl-N-{6-[5-(trifluoromethyl)-1,2,4-oxadiazol-3-yl]-1,2,3,4-tetrahydronaphthalen-1-yl}hydroxylamine] yielded a chromatographic logP of 4.08. Consider `CON(C(=O)C1CC1)C1CCCc2cc(-c3noc(C(F)(F)F)n3)ccc21` (centres unmarked) [Compound I-019], for which the LogP is 4.44^[a]. As for `COCCC(=O)N(OC)C1CCCc2cc(-c3noc(C(F)(F)F)n3)ccc21` (centres unmarked) [Compound I-021], the LogP is 3.96^[a]. Consider `CON(C(=O)c1ccccc1)C1CCCc2cc(-c3noc(C(F)(F)F)n3)ccc21` (centres unmarked) [Compound I-022], for which the LogP was 4.72^[a].

With `CCN(OC)C1CCCc2cc(-c3noc(C(F)(F)F)n3)ccc21` (centres unmarked) [Compound I-023, N-Ethyl-O-methyl-N-{6-[5-(trifluoromethyl)-1,2,4-oxadiazol-3-yl]-1,2,3,4-tetrahydronaphthalen-1-yl}hydroxylamine], the chromatographic logP stood at 6.04. Regarding `COC(=O)N(OC)C1CCCc2cc(-c3noc(C(F)(F)F)n3)ccc21` (centres unmarked) [Compound I-024], the LogP was 4.34^[a]. Still for that read-out and setting: as for `COCCOC(=O)N(OC)C1CCCc2cc(-c3noc(C(F)(F)F)n3)ccc21` (centres unmarked) [Compound I-025], the figure is 4.27^[a]. For the molecule `COC(=O)N1CCc2ccc(-c3noc(C(F)(F)Cl)n3)cc2C1` [Compound I-026], the LogP is 3.83^[a].

For `COC(=O)N1CCCc2cc(-c3noc(C(F)(F)Cl)n3)ccc21` [Compound I-027], the LogP was 4.27^[a]. On the same count and under the same terms, as for `COC(=O)N1CCCc2cc(-c3noc(C(F)(F)F)n3)ccc21` [Compound I-028], the figure is 4.03^[a]; as for `CCC(=O)N1CCCc2cc(-c3noc(C(F)(F)Cl)n3)ccc21` [Compound I-029], 3.90^[a]; as for `CCC(=O)N1CCCc2cc(-c3noc(C(F)(F)F)n3)ccc21` [Compound I-030], 3.68^[a]. Still for that read-out and setting: as for `CCC(=O)N1CCc2ccc(-c3noc(C(F)(F)F)n3)cc2C1` [Compound I-031], the figure is 3.11^[a]; as for `COC(=O)N1CCc2ccc(-c3noc(C(F)(F)F)n3)cc2C1` [Compound I-032], 3.59^[a]; as for `CCC(=O)N1CCc2ccc(-c3noc(C(F)(F)Cl)n3)cc2C1` [Compound I-033], 3.31^[a].

The values above are taken from patent US20210009541A1, “FUNGICIDAL OXADIAZOLES” (Bayer Aktiengesellschaft, priority 2018, published 2021).
